Experimental data reported in US11000033B2, “Ketone or oxime compound, and herbicide” (NISSAN CHEMICAL CORPORATION, priority 2014, dated 2021).

Legend:
Type in all cases: in vivo
transplanted rice plant = test: Test Example 1: effect on crop, application before weed generation in submerged conditions (symbol a); conditions: application herbicide amount 320 g/ha
Method in brief: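 Rice at 2.5 leaf stage transplanted into submerged soil (4 cm depth) sown with three weed species; herbicide applied before weed emergence.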

Scirpus juncoides = test: Test Example 2: herbicidal activity, application during weed generation in submerged conditions (symbol B); conditions: Table 23; application herbicide amount 320 g/ha; grade 0-5 by criteria of Test Example 1
Method in brief: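 Scoring of herbicidal effect took place 3 weeks after treatment, using the criteria of the earlier test. Treatment was water-surface application of diluted emulsifiable compound at a set dose. Plants were at one- to two-leaf stage in submerged alluvial soil (4 cm depth), greenhouse 25-30° C.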

Leptochloa chinensis = test: Test Example 3: herbicidal effect by foliage application, Wagner pot (symbol D); conditions: application herbicide amount 320 g/ha, Table 24
Method in brief: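 Foliar spray of a water-diluted emulsion at a predetermined herbicide amount, applied to 14-day-old plants. Seedlings were raised in flooded alluvial soil (0.1–0.5 cm water) at 25–30 °C in a greenhouse. Injury was rated after 3 weeks against fixed criteria.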

Avena fatua = test: Test Example 4: herbicidal effect by soil treatment (symbol I); conditions: for Herbicidal effect grade, I: Avena fatua: application herbicide amount 320 g/ha
Method in brief: (§1)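 Seeds were sown in sterilized diluvial soil, covered with about 1.5 cm of soil, and the soil surface was sprayed with a water-diluted emulsion of the compound at a predetermined rate. Plants grew in a greenhouse at 25° C. to 30° C.; effects were scored visually 3 weeks after application.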

Alopecurus myosuroides [1] = test: Test Example 4: herbicidal effect by soil treatment (symbol J)
Method in brief: as §1

Veronica persica = test: Test Example 4: herbicidal effect by soil treatment (symbol R); conditions: for Herbicidal effect grade, R: Veronica persica: application herbicide amount 320 g/ha
From the text: Herbicidal Effect Test by Soil Treatment
Sterilized diluvial soil was placed in a plastic box having a length of 21 cm, a width of 13 cm, and a depth of 7 cm. Each of the seeds of Digitaria ciliaris, Setaria viridis, Echinochloa crus-galli var. crus-galli, Avena fatua, Alopecurus myosuroides, Lolium multiflorum Lam., Apera spica-venti, Abutilon theophrasti, Amaranthus retroflexus, Chenopodium album, Stellaria media, Galium spurium, Veronica persica, corn, soybean, rice, wheat, beet, and rapeseed was sowed in a spot-like manner and was covered with the soil of a thickness of about 1.5 cm. Subsequently, the emulsion agent of the compound present invention prepared in accordance with Formulation Example 2 was diluted with water so as to be a predetermined herbicide amount and the diluted emulsion agent was uniformly applied to the surface of the soil with a small-size spray. The plastic box was placed in a greenhouse of 25° C. to 30° C. to grow plant. 3 weeks later from the herbicide application, the effect to each plant was investigated in accordance with the criteria of Test Example 1.

wheat [2] = test: Test Example 4: effect on crop by soil treatment (symbol e); conditions: for Effect on crop grade, e: wheat: application herbicide amount 320 g/ha
Method in brief: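 Soil-treatment setup: crop and weed seeds were spot-sown into sterilized diluvial soil, then buried beneath approximately 1.5 cm of it, and the boxes were housed in a 25–30° C. greenhouse.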

Digitaria ciliaris = test: Test Example 5: herbicidal effect by foliage application, plastic box (symbol F); conditions: 320 g/ha, 3 weeks after application
Method in brief: (§2)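 Greenhouse foliar test: seedlings at 14 days, grown 25° C. to 30° C. in sterilized diluvial soil; compound applied as an aqueous dilution of an emulsion; response read 3 weeks after spraying.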

Alopecurus myosuroides [3] = test: Test Example 5: herbicidal effect by foliage application, plastic box (symbol J); conditions: 320 g/ha, 3 weeks after application
Method in brief: as §2

Lolium multiflorum Lam. = test: Test Example 5: herbicidal effect by foliage application, plastic box (symbol K); conditions: 320 g/ha, 3 weeks after application
Method in brief: as §2

corn = test: Test Example 5: effect on crop by foliage application, plastic box (symbol c); conditions: 320 g/ha, 3 weeks after application
Method in brief: (§3)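 Greenhouse test at 25° C. to 30° C. Seeds of crops and weeds were spot-sown in boxes of sterilized diluvial soil under roughly 1.5 cm soil cover, then grown for foliage treatment.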

soybean = test: Test Example 5: effect on crop by foliage application, plastic box (symbol d); conditions: 320 g/ha, 3 weeks after application
Method in brief: as §3

wheat [4] = test: Test Example 5: effect on crop by foliage application, plastic box (symbol e); conditions: 320 g/ha, 3 weeks after application
Method in brief: as §3

Row | Compound | a (transplanted rice plant) effect on crop grade (transplanted rice plant) | Herbicidal effect grade, B: Scirpus juncoides (Scirpus juncoides) | D (Leptochloa chinensis) herbicidal effect grade (Leptochloa chinensis) | Herbicidal effect grade, I: Avena fatua (Avena fatua) | Herbicidal effect grade, R: Veronica persica (Veronica persica) | Effect on crop grade, e: wheat (wheat [2]) | F: Digitaria ciliaris, herbicidal effect grade (Digitaria ciliaris) | J: Alopecurus myosuroides, herbicidal effect grade (Alopecurus myosuroides [3]) | K: Lolium multiflorum Lam., herbicidal effect grade (Lolium multiflorum Lam.) | c: corn, effect on crop grade (corn) | d: soybean, effect on crop grade (soybean) | e: wheat, effect on crop grade (wheat [4]) | further results
1 | COC(=O)C(C(=O)C1CC1)C1CC(O)=C(c2c(C)cc(Br)cc2C)C1=O (mixture of isomers) [10-002] | 1 (Herbicidal ratio of 5% or higher and lower than 20%) | 0 (Herbicidal ratio of 5% or lower (almost no effect)) | 5 (Herbicidal ratio of 90% or more (almost completely withered)) | 3 (Herbicidal ratio of 40% or higher and lower than 70%) | 0 (Herbicidal ratio of 5% or lower (almost no effect)) | 0 (Herbicidal ratio of 5% or lower (almost no effect)) | 5 (Herbicidal ratio of 90% or more (almost completely withered)) | 4 (Herbicidal ratio of 70% or higher and lower than 90%) | 5 (Herbicidal ratio of 90% or more (almost completely withered)) | 5 (Herbicidal ratio of 90% or more (almost completely withered)) | 0 (Herbicidal ratio of 5% or lower (almost no effect)) | 0 (Herbicidal ratio of 5% or lower (almost no effect)) | Herbicidal effect grade, J: Alopecurus myosuroides (Alopecurus myosuroides [1]; application herbicide amount 320 g/ha): 0 (Herbicidal ratio of 5% or lower (almost no effect))
2 | CON=C(CC1CC(O)=C(c2c(C)cc(C)cc2C)C1=O)C(F)(F)F (stereo not shown) [1-097] | – | 0 (Herbicidal ratio of 5% or lower (almost no effect)) | – | – | – | – | – | – | – | – | – | – | Effect grade on crop, a: transplanted rice plant (transplanted rice plant): 3 (Herbicidal ratio of 40% or higher and lower than 70%); I: Avena fatua, herbicidal effect grade (Avena fatua; 320 g/ha): 1 (Herbicidal ratio of 5% or higher and lower than 20%); J: Alopecurus myosuroides, herbicidal effect grade (Alopecurus myosuroides [1]; 320 g/ha): 2 (Herbicidal ratio of 20% or higher and lower than 40%); R: Veronica persica, herbicidal effect grade (Veronica persica; 320 g/ha): 0 (Herbicidal ratio of 5% or lower (almost no effect)); e: wheat, effect grade on crop (wheat [2]; 320 g/ha): 0 (Herbicidal ratio of 5% or lower (almost no effect)); F: Digitaria ciliaris, herbicidal effect (criteria 0-5) (Digitaria ciliaris): 5 (Herbicidal ratio of 90% or more (almost completely withered)); J: Alopecurus myosuroides, herbicidal effect (criteria 0-5) (Alopecurus myosuroides [3]): 5 (Herbicidal ratio of 90% or more (almost completely withered)); K: Lolium multiflorum Lam., herbicidal effect (criteria 0-5) (Lolium multiflorum Lam.): 5 (Herbicidal ratio of 90% or more (almost completely withered)); c: corn, effect on crop (criteria 0-5) (corn): 5 (Herbicidal ratio of 90% or more (almost completely withered)); d: soybean, effect on crop (criteria 0-5) (soybean): 3 (Herbicidal ratio of 40% or higher and lower than 70%); e: wheat, effect on crop (criteria 0-5) (wheat [4]): 2 (Herbicidal ratio of 20% or higher and lower than 40%)
3 | Cc1cc(Br)cc(C)c1C1=C(O)CC(CC(=NOCC(F)(F)F)C2CC2)C1=O (stereo not shown) [9-009] | 5 (Herbicidal ratio of 90% or more (almost completely withered)) | 0 (Herbicidal ratio of 5% or lower (almost no effect)) | 5 (Herbicidal ratio of 90% or more (almost completely withered)) | 0 (Herbicidal ratio of 5% or lower (almost no effect)) | 1 (Herbicidal ratio of 5% or higher and lower than 20%) | 0 (Herbicidal ratio of 5% or lower (almost no effect)) | 4 (Herbicidal ratio of 70% or higher and lower than 90%) | 4 (Herbicidal ratio of 70% or higher and lower than 90%) | 5 (Herbicidal ratio of 90% or more (almost completely withered)) | 3 (Herbicidal ratio of 40% or higher and lower than 70%) | 0 (Herbicidal ratio of 5% or lower (almost no effect)) | 0 (Herbicidal ratio of 5% or lower (almost no effect)) | –
